The source of these data is patent US9365588B2, “Benzoxazines as modulators of ion channels” (Vertex Pharmaceuticals Incorporated, priority 2011, dated 2016).

Usually IC50 stands for the concentration that gives 50% inhibition.

The assay deals with human NaV 1.7 (Homo sapiens, UniProt Q15858). Kind of assay: E-VIPR optical membrane potential assay with electrical stimulation. Format: cell-based. The note with it: sodium channel inhibition; read-out: Binned Activity Data (IC50). A digest of the protocol: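 Membrane-potential read-out: background-subtracted 460 nm/580 nm ratio during a 9 s current-controlled stimulus, 400 Hz scan. Before stimulation, NaV1.7-HEK cells carried coumarin/oxonol dye and compound (final DMSO 0.625%) for 20–35 min at room temperature; tetracaine 125 μM served as positive control.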
Sequence of human NaV 1.7 (Q15858 whole entry): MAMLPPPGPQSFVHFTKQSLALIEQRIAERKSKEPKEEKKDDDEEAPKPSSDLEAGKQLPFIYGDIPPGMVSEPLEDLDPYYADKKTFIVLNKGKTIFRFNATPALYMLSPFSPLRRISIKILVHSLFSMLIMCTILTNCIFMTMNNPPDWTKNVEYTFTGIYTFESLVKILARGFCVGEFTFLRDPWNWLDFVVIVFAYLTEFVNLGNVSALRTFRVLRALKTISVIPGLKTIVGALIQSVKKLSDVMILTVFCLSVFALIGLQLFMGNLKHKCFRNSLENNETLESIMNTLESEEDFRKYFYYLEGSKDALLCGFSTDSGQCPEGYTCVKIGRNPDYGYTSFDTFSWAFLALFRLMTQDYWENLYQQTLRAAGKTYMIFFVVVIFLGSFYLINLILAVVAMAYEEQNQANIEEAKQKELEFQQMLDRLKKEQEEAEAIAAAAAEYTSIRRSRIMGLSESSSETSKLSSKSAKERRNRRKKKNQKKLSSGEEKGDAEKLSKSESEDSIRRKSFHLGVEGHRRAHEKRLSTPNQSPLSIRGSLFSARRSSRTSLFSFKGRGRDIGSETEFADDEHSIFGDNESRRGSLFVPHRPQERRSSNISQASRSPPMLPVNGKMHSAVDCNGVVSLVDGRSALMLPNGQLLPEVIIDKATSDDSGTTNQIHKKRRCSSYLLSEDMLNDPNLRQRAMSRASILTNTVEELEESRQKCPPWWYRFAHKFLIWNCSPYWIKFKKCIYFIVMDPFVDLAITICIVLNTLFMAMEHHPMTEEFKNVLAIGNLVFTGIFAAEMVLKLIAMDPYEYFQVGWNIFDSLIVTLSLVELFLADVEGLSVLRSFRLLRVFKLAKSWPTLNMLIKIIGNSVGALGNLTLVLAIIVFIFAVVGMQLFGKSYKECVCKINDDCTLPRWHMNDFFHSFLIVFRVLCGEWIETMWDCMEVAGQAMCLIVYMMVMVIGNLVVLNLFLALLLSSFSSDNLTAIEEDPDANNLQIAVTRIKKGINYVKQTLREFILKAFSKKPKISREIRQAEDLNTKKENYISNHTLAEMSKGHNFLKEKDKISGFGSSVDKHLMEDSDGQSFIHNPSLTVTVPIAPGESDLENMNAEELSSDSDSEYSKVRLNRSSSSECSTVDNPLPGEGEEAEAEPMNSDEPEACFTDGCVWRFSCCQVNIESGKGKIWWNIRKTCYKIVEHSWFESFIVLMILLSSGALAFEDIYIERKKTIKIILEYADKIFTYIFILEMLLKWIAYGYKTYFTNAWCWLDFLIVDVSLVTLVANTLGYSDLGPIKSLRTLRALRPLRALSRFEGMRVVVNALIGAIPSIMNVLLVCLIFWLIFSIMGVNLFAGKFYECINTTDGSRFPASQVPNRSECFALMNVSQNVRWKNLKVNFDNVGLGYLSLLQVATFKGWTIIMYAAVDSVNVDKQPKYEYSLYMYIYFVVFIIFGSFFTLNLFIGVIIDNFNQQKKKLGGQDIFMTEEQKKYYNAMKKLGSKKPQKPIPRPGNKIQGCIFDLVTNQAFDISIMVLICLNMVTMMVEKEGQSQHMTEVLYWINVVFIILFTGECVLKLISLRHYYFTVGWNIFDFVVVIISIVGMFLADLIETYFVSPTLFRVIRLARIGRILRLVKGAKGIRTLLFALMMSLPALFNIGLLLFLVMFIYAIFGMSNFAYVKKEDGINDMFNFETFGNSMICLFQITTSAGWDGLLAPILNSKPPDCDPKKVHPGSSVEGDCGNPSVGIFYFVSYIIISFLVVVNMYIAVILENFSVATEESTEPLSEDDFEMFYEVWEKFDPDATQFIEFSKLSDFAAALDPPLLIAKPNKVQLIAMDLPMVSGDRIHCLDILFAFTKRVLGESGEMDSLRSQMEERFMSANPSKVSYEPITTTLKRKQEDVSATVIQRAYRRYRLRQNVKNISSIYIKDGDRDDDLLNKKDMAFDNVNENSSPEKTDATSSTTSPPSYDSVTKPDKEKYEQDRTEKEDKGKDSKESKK
For `CC(C)(C)c1ccc(C(=O)N2CCC3(CC2)Oc2ccccc2-n2cccc23)cc1C#N` [Compound 419], the IC50 was ≤ 2000 nM.

Regarding `COCCOc1ccc(C(=O)N2CCC3(CC2)Oc2ccccc2-c2c3cnn2C)cc1OC` [Compound 420], the IC50 is ≤ 2000 nM.

Regarding `Cn1ncc2c1-c1ccccc1OC21CCN(C(=O)c2ccc3c(c2)OC(C)(C)C3)CC1` [Compound 422], the IC50 lay within 2000 to 5000 nM.

As to `CC(C)CS(=O)(=O)c1ccc(C(=O)N2CCC3(CC2)Oc2ccccc2-c2c3cnn2C)cc1` [Compound 423], the IC50 is ≤ 2000 nM.

In the case of `CC(C)(O)c1ccc(C(=O)N2CCC3(CC2)Oc2ccccc2-n2c(C(F)(F)F)ccc23)cc1F` [Compound 424], the IC50 is ≤ 2000 nM.

`Cn1cc2c(n1)-c1ccccc1OC21CCN(C(=O)c2ccc(C(C)(C)O)c(CO)c2)CC1` [Compound 425]: the IC50 is > 5000 nM.

Regarding `Cc1cc(S(=O)(=O)C(C)C)ccc1C(=O)N1CCC2(CC1)Oc1ccccc1-n1c(C#N)ccc12` [Compound 426], the IC50 is ≤ 2000 nM.

`COc1cc(C(=O)N2CCC3(CC2)Oc2ccccc2-c2c3cnn2C)ccc1O[C@@H]1CCOC1` [Compound 427]: the IC50 was ≤ 2000 nM.

For the compound `COc1cc(C(=O)N2CCC3(CC2)Oc2ccccc2-c2c3cnn2C)ccc1C(C)(C)C` [Compound 429], the IC50 is ≤ 2000 nM.

For the compound `CC(C)Oc1ccccc1C(=O)N1CCC2(CC1)Oc1ccccc1-c1c2cnn1C` [Compound 430], the IC50 was ≤ 2000 nM.

For the compound `CC(C)S(=O)(=O)c1ccc(C(=O)N2CCC3(CC2)Oc2cc(CO)ccc2-n2c(C#N)ccc23)cc1` [Compound 431], the IC50 is ≤ 2000 nM.

Consider `COc1ccc(C(=O)N2CCC3(CC2)Oc2ccccc2-c2c3cnn2C)cc1C` [Compound 433], for which the IC50 was ≤ 2000 nM.

Consider `COc1cc(Cl)ccc1C(=O)N1CCC2(CC1)Oc1cc(Cl)ccc1-n1cccc12` [Compound 434], for which the IC50 is ≤ 2000 nM.

On to `COc1cc(C(=O)N2CCC3(CC2)Oc2ccc(F)cc2-c2nn(C)cc23)ccc1OC(C)C` [Compound 435], for which the IC50 was ≤ 2000 nM.

`CC(C)CS(=O)(=O)c1ccc(C(=O)N2CCC3(CC2)Oc2ccccc2-n2c(C#N)ccc23)cc1` [Compound 436]: the IC50 is ≤ 2000 nM.

Consider `COc1cc(C(=O)N2CCC3(CC2)Oc2ccccc2-n2cccc23)ccc1O[C@@H]1CCC[C@H]1O` [Compound 437], for which the 50% inhibitory concentration (IC50) was ≤ 2000 nM.

For the compound `COc1ccc(C(=O)N2CCC3(CC2)Oc2ccccc2-n2c(C(F)(F)F)ccc23)nc1` [Compound 438], the IC50 is ≤ 2000 nM.

Consider `Cn1ncc2c1-c1ccccc1OC21CCN(C(=O)c2cccc3nccnc23)CC1` [Compound 439], for which the concentration for half-maximal inhibition (IC50) is ≤ 2000 nM.

As for `Cc1ccc2c(c1)OC1(CCN(C(=O)c3ccc(S(=O)(=O)C(C)C)cc3)CC1)c1ccc(C#N)n1-2` [Compound 440], the IC50 is ≤ 2000 nM.

Consider `COc1cc(C(=O)N2CCC3(CC2)Oc2ccccc2-c2c3cnn2C)ccc1C1CC1` [Compound 442], for which the IC50 was ≤ 2000 nM.

Turning to `Cc1cc(C(=O)N2CCC3(CC2)Oc2ccccc2-n2cccc23)ccc1C(C)(C)O` [Compound 443], the IC50 was ≤ 2000 nM.

In the case of `Cn1ncc2c1-c1ccccc1OC21CCN(C(=O)c2ccc3[nH]ncc3c2)CC1` [Compound 444], the IC50 was > 5000 nM.

With `CCOc1cccc(C(=O)N2CCC3(CC2)Oc2ccccc2-n2c3ccc2S(C)(=O)=O)c1F` [Compound 445], the IC50 lay within 2000 to 5000 nM.

Take `CCn1ncc2c1-c1cc(F)ccc1OC21CCN(C(=O)c2ccccc2OC(F)F)CC1` [Compound 446]: the IC50 is ≤ 2000 nM.

With `Cc1cc(C(C)(C)O)ccc1C(=O)N1CCC2(CC1)Oc1ccccc1-c1c2cnn1C` [Compound 447], the IC50 is ≤ 2000 nM.

Turning to `CN(C)C(=O)c1ccccc1C(=O)N1CCC2(CC1)Oc1ccccc1-c1c2cnn1C` [Compound 448], the IC50 fell in the range of 2000 to 5000 nM.

Turning to `COC[C@@H](C)Oc1ccc(C(=O)N2CCC3(CC2)Oc2ccccc2-n2cccc23)cc1OC` [Compound 449], the IC50 was ≤ 2000 nM.

Regarding `Cn1ncc2c1-c1ccccc1OC21CCN(C(=O)c2ccccc2OC(F)(F)F)CC1` [Compound 452], the IC50 was ≤ 2000 nM.

`Cc1cc(C(=O)N2CCC3(CC2)Oc2cc(Cl)ccc2-n2cccc23)ccc1C#N` [Compound 453]: the IC50 is ≤ 2000 nM.

Regarding `CCc1ccc(C(=O)N2CCC3(CC2)Oc2cc(CN(C)C)ccc2-n2cccc23)cc1OC` [Compound 454], the IC50 was 2000 to 5000 nM.

In the case of `CC(C)(O)c1ccc(C(=O)N2CCC3(CC2)Oc2ccccc2-n2c(C(F)(F)F)ccc23)cn1` [Compound 455], the IC50 is > 5000 nM.

`CCS(=O)(=O)c1ccc(C(=O)N2CCC3(CC2)Oc2ccccc2-n2c(C(F)(F)F)ccc23)cc1` [Compound 456]: the IC50 was ≤ 2000 nM.

As for `COc1cccc2c(C(=O)N3CCC4(CC3)Oc3ccccc3-c3c4cnn3C)c[nH]c12` [Compound 460], the IC50 was ≤ 2000 nM.

Turning to `Cc1cc(C(=O)N2CCC3(CC2)Oc2ccccc2-n2c(C#N)ccc23)ccc1OCC(=O)O` [Compound 462], the concentration for half-maximal inhibition (IC50) was in the range of 2000 to 5000 nM.

Regarding `COc1cccc2[nH]cc(C(=O)N3CCC4(CC3)Oc3ccccc3-c3c4cnn3C)c12` [Compound 463], the IC50 is ≤ 2000 nM.

Consider `CC(C)Oc1ccc(C(=O)N2CCC3(CC2)Oc2ccccc2-c2c3cnn2C)cc1` [Compound 464], for which the IC50 was ≤ 2000 nM.

In the case of `COc1cc(C)ccc1C(=O)N1CCC2(CC1)Oc1ccccc1-c1c2cnn1C` [Compound 465], the IC50 is ≤ 2000 nM.

Take `COc1cc(C(=O)N2CCC3(CC2)Oc2ccccc2-n2cccc23)ccc1OCCCO` [Compound 466]: the IC50 is ≤ 2000 nM.

Turning to `Cn1ncc2c1-c1ccc(F)cc1OC21CCN(C(=O)c2ccccc2OC(F)(F)F)CC1` [Compound 468], the half-inhibitory concentration (IC50) was ≤ 2000 nM.

Turning to `COCCOc1ccc(C(=O)N2CCC3(CC2)Oc2ccccc2-c2c3cnn2CCOC)cc1OC` [Compound 469], the IC50 lay within 2000 to 5000 nM.

For the compound `COc1ccc(C(=O)N2CCC3(CC2)Oc2ccccc2-c2c3cnn2C)c(O)c1` [Compound 470], the concentration for half-maximal inhibition (IC50) was in the range of 2000 to 5000 nM.

Regarding `O=C(c1cccnc1Oc1ccc(F)cc1)N1CCC2(CC1)Oc1ccccc1-n1c(C(F)(F)F)ccc12` [Compound 472], the IC50 is ≤ 2000 nM.

For `Cn1ncc2c1-c1ccccc1OC21CCN(C(=O)c2ccc(CC(C)(C)O)cc2)CC1` [Compound 473], the IC50 was ≤ 2000 nM.

In the case of `COc1cc(OC)c(C(=O)N2CCC3(CC2)Oc2ccccc2-n2cccc23)cc1CO` [Compound 474], the IC50 was 2000 to 5000 nM.

Take `COc1ccc(F)c(C(=O)N2CCC3(CC2)Oc2cc(Cl)ccc2-n2cccc23)c1` [Compound 475]: the half-inhibitory concentration (IC50) is ≤ 2000 nM.

Take `COc1ccc(F)cc1C(=O)N1CCC2(CC1)Oc1ccccc1-c1c2cnn1C` [Compound 476]: the IC50 was ≤ 2000 nM.

For the compound `COc1ccc(C(=O)N2CCC3(CC2)Oc2ccccc2-n2cccc23)cc1C(F)(F)F` [Compound 477], the IC50 is ≤ 2000 nM.

On to `CCOc1cccc(C(=O)N2CCC3(CC2)Oc2cc(Cl)ccc2-n2cccc23)c1` [Compound 478], for which the concentration for half-maximal inhibition (IC50) was ≤ 2000 nM.

Regarding `COc1ccc(C(=O)N2CCC3(CC2)Oc2cc(F)ccc2-n2c(C#N)ccc23)cc1C(F)(F)F` [Compound 479], the IC50 was > 5000 nM.

Consider `COc1ccc2c(c1)-c1c(cnn1C)C1(CCN(C(=O)c3ccccc3OC(F)F)CC1)O2` [Compound 480], for which the IC50 is ≤ 2000 nM.

Consider `CC(C)(C)S(=O)(=O)c1ccc(C(=O)N2CCC3(CC2)Oc2ccccc2-n2c(C(F)(F)F)ccc23)cc1` [Compound 483], for which the IC50 was ≤ 2000 nM.
